Counter-ions that a name gives are not always drawn.
tested on: NCI-H292 lung cancer cells; test: FDA drug screening, complete media vs cholesterol-free media without statin (TABLE 1); assay type: cell-based, human; conditions: Complete minus Cholesterol-free; greater than 0 enhanced anti-cancer activity, about 0 neutral, below 0 antagonists

SMILES | Difference
CC(C)(Sc1cc(C(C)(C)C)c(O)c(C(C)(C)C)c1)Sc1cc(C(C)(C)C)c(O)c(C(C)(C)C)c1 [Probucol] | −0.87
CCN(CC)CCNC(=O)c1ccc(N)cc1 [Procainamide (hydrochloride)] | −0.51
CNNCc1ccc(C(=O)NC(C)C)cc1 [Procarbazine (Hydrochloride)] | −0.50
CCCCC[C@H](O)/C=C/[C@H]1[C@H](O)CC(=O)[C@@H]1C/C=C\CCCC(=O)O [Prostaglandin E2] | −0.61
CCCc1cc(C(N)=S)ccn1 [Prothionamide] | −0.62
COCCCN1CCC(NC(=O)c2cc(Cl)c(N)c3c2OCC3)CC1 [Prucalopride] | −0.49

same assay, conditions: NCI-H292 cells in cholesterol-free media without statin

SMILES | Cholesterol-free
CC(C)(Sc1cc(C(C)(C)C)c(O)c(C(C)(C)C)c1)Sc1cc(C(C)(C)C)c(O)c(C(C)(C)C)c1 [Probucol] | 1.75
CCN(CC)CCNC(=O)c1ccc(N)cc1 [Procainamide (hydrochloride)] | 1.397
CCCCC[C@H](O)/C=C/[C@H]1[C@H](O)CC(=O)[C@@H]1C/C=C\CCCC(=O)O [Prostaglandin E2] | 1.546
CCCc1cc(C(N)=S)ccn1 [Prothionamide] | 1.391
COCCCN1CCC(NC(=O)c2cc(Cl)c(N)c3c2OCC3)CC1 [Prucalopride] | 1.522

same assay, conditions: NCI-H292 cells in complete media

SMILES | Complete
CC(C)(Sc1cc(C(C)(C)C)c(O)c(C(C)(C)C)c1)Sc1cc(C(C)(C)C)c(O)c(C(C)(C)C)c1 [Probucol] | 0.8825
CCN(CC)CCNC(=O)c1ccc(N)cc1 [Procainamide (hydrochloride)] | 0.8831
CNNCc1ccc(C(=O)NC(C)C)cc1 [Procarbazine (Hydrochloride)] | 1.119
CCCCC[C@H](O)/C=C/[C@H]1[C@H](O)CC(=O)[C@@H]1C/C=C\CCCC(=O)O [Prostaglandin E2] | 0.9346
CCCc1cc(C(N)=S)ccn1 [Prothionamide] | 0.7758
COCCCN1CCC(NC(=O)c2cc(Cl)c(N)c3c2OCC3)CC1 [Prucalopride] | 1.033

same assay, conditions: NCI-H292 cells, cholesterol-free media without statin

SMILES | Cholesterol-free
OC(CCN1CCCC1)(c1ccccc1)C1CCCCC1 (stereo not shown) [Procyclidine (hydrochloride)] | 1.459
CC(=O)[C@H]1CC[C@H]2[C@@H]3CCC4=CC(=O)CC[C@]4(C)[C@H]3CC[C@]12C [Progesterone] | 1.057
CCCOc1ccc(C(=O)OCCN(CC)CC)cc1N [Proparacaine (Hydrochloride)] | 1.255
CC(C)NCC(O)COc1cccc2ccccc12 (stereo not shown) [Propranolol (hydrochloride)] | 1.016
CCCOC(=O)c1cc(O)c(O)c(O)c1 [Propyl gallate] | 1.541

same assay, conditions: NCI-H292 cells, cholesterol-free media without statin, FDA drug library screen

SMILES | Cholesterol-free
CCCN(CCC)C(=O)C(CCC(=O)O)NC(=O)c1ccccc1 (stereo not shown) [Proglumide] | 0.7154
CC(O)Cn1cnc2c1c(=O)n(C)c(=O)n2C (stereo not shown) [Proxyphylline] | 0.7713
Cc1oc(=O)oc1CN1CCN(c2cc3c(cc2F)c(=O)c(C(=O)O)c2n3C(C)S2)CC1 (stereo not shown) [Prulifloxacin] | 1.111
CN1CCCN=C1/C=C/c1cccs1.O=C(O)c1cc2ccccc2c(Cc2c(O)c(C(=O)O)cc3ccccc23)c1O [Pyrantel (pamoate)] | 1.079

same assay, conditions: NCI-H292 cells, complete media

SMILES | Complete
OC(CCN1CCCC1)(c1ccccc1)C1CCCCC1 (stereo not shown) [Procyclidine (hydrochloride)] | 0.997
CC(=O)[C@H]1CC[C@H]2[C@@H]3CCC4=CC(=O)CC[C@]4(C)[C@H]3CC[C@]12C [Progesterone] | 0.6641
CCCOc1ccc(C(=O)OCCN(CC)CC)cc1N [Proparacaine (Hydrochloride)] | 0.8769
CC(C)NCC(O)COc1cccc2ccccc12 (stereo not shown) [Propranolol (hydrochloride)] | 0.5683
CCCOC(=O)c1cc(O)c(O)c(O)c1 [Propyl gallate] | 1.125

same assay, conditions: NCI-H292 cells, complete media, FDA drug library screen

SMILES | Complete
CCCN(CCC)C(=O)C(CCC(=O)O)NC(=O)c1ccccc1 (stereo not shown) [Proglumide] | 1.407
CC(O)Cn1cnc2c1c(=O)n(C)c(=O)n2C (stereo not shown) [Proxyphylline] | 1.327
Cc1oc(=O)oc1CN1CCN(c2cc3c(cc2F)c(=O)c(C(=O)O)c2n3C(C)S2)CC1 (stereo not shown) [Prulifloxacin] | 1.213
CN1CCCN=C1/C=C/c1cccs1.O=C(O)c1cc2ccccc2c(Cc2c(O)c(C(=O)O)cc3ccccc23)c1O [Pyrantel (pamoate)] | 1.203

same assay, conditions: complete vs cholesterol-free media; >0 enhanced anti-cancer activity, about 0 neutral, <0 antagonist

SMILES | Difference
CCCN(CCC)C(=O)C(CCC(=O)O)NC(=O)c1ccccc1 (stereo not shown) [Proglumide] | 0.69
CC(O)Cn1cnc2c1c(=O)n(C)c(=O)n2C (stereo not shown) [Proxyphylline] | 0.56
Cc1oc(=O)oc1CN1CCN(c2cc3c(cc2F)c(=O)c(C(=O)O)c2n3C(C)S2)CC1 (stereo not shown) [Prulifloxacin] | 0.10
CN1CCCN=C1/C=C/c1cccs1.O=C(O)c1cc2ccccc2c(Cc2c(O)c(C(=O)O)cc3ccccc23)c1O [Pyrantel (pamoate)] | 0.12

same assay, conditions: complete vs cholesterol-free media; greater than 0 enhanced anti-cancer activity, about 0 neutral, below 0 antagonists

SMILES | Difference
OC(CCN1CCCC1)(c1ccccc1)C1CCCCC1 (stereo not shown) [Procyclidine (hydrochloride)] | −0.46
CC(=O)[C@H]1CC[C@H]2[C@@H]3CCC4=CC(=O)CC[C@]4(C)[C@H]3CC[C@]12C [Progesterone] | −0.39
CCCOc1ccc(C(=O)OCCN(CC)CC)cc1N [Proparacaine (Hydrochloride)] | −0.38
CC(C)NCC(O)COc1cccc2ccccc12 (stereo not shown) [Propranolol (hydrochloride)] | −0.45
CCCOC(=O)c1cc(O)c(O)c(O)c1 [Propyl gallate] | −0.42

tested on: NCI-H292 lung cancer cells; test: FDA drug screening, complete media vs cholesterol-free media with simvastatin (TABLE 2); assay type: cell-based, human; conditions: NCI-H292 cells, FDA drug library screen, cholesterol-free media with simvastatin 0.04 μM

SMILES | Cholesterol-free media + simvastatin (0.04 μM)
CNNCc1ccc(C(=O)NC(C)C)cc1 [Procarbazine (Hydrochloride)] | 0.7556
CC(=O)[C@H]1CC[C@H]2[C@@H]3CCC4=CC(=O)CC[C@]4(C)[C@H]3CC[C@]12C [Progesterone] | 1.054
CCCOc1ccc(C(=O)OCCN(CC)CC)cc1N [Proparacaine (Hydrochloride)] | 0.544
Cc1oc(=O)oc1CN1CCN(c2cc3c(cc2F)c(=O)c(C(=O)O)c2n3C(C)S2)CC1 (stereo not shown) [Prulifloxacin] | 0.966

same assay, conditions: NCI-H292 cells, FDA drug library screen, complete media

SMILES | Complete Media
CNNCc1ccc(C(=O)NC(C)C)cc1 [Procarbazine (Hydrochloride)] | 1.193
CC(=O)[C@H]1CC[C@H]2[C@@H]3CCC4=CC(=O)CC[C@]4(C)[C@H]3CC[C@]12C [Progesterone] | 0.9232
CCCOc1ccc(C(=O)OCCN(CC)CC)cc1N [Proparacaine (Hydrochloride)] | 1.021

same assay, conditions: NCI-H292 cells, FDA library drug in cholesterol-free media with simvastatin 0.04 μM

SMILES | Cholesterol-free media + simvastatin (0.04 μM)
CCN(CC)CCNC(=O)c1ccc(N)cc1 [Procainamide (hydrochloride)] | 1.529
CC(O)Cn1cnc2c1c(=O)n(C)c(=O)n2C (stereo not shown) [Proxyphylline] | 1.208
CN1CCCN=C1/C=C/c1cccs1.O=C(O)c1cc2ccccc2c(Cc2c(O)c(C(=O)O)cc3ccccc23)c1O [Pyrantel (pamoate)] | 1.254

same assay, conditions: NCI-H292 cells, FDA library drug in complete media

SMILES | Complete Media
CCN(CC)CCNC(=O)c1ccc(N)cc1 [Procainamide (hydrochloride)] | 1.165
CC(O)Cn1cnc2c1c(=O)n(C)c(=O)n2C (stereo not shown) [Proxyphylline] | 0.9431
CN1CCCN=C1/C=C/c1cccs1.O=C(O)c1cc2ccccc2c(Cc2c(O)c(C(=O)O)cc3ccccc23)c1O [Pyrantel (pamoate)] | 0.856

same assay, conditions: NCI-H292 cells, cholesterol-free media with simvastatin 0.04 μM; FDA drug library screen (TABLE 2)

SMILES | Cholesterol-free media + simvastatin (0.04 μM)
CCCN(CCC)C(=O)C(CCC(=O)O)NC(=O)c1ccccc1 (stereo not shown) [Proglumide] | 0.8053
CC(C)NCC(O)COc1cccc2ccccc12 (stereo not shown) [Propranolol (hydrochloride)] | 0.8722

same assay, conditions: NCI-H292 cells, cholesterol-free media with simvastatin 0.04 μM; cell growth value in FDA drug screen

SMILES | Cholesterol-free media + simvastatin (0.04 μM)
CCCCC[C@H](O)/C=C/[C@H]1[C@H](O)CC(=O)[C@@H]1C/C=C\CCCC(=O)O [Prostaglandin E2] | 0.8899
CCCc1cc(C(N)=S)ccn1 [Prothionamide] | 1.039
COCCCN1CCC(NC(=O)c2cc(Cl)c(N)c3c2OCC3)CC1 [Prucalopride] | 0.8751

same assay, conditions: NCI-H292 cells, complete media; FDA drug library screen (TABLE 2)

SMILES | Complete Media
CCCN(CCC)C(=O)C(CCC(=O)O)NC(=O)c1ccccc1 (stereo not shown) [Proglumide] | 0.7842
CC(C)NCC(O)COc1cccc2ccccc12 (stereo not shown) [Propranolol (hydrochloride)] | 0.8715

same assay, conditions: NCI-H292 cells, complete media; cell growth value in FDA drug screen

SMILES | Complete Media
CCCCC[C@H](O)/C=C/[C@H]1[C@H](O)CC(=O)[C@@H]1C/C=C\CCCC(=O)O [Prostaglandin E2] | 0.9562
CCCc1cc(C(N)=S)ccn1 [Prothionamide] | 1.099
COCCCN1CCC(NC(=O)c2cc(Cl)c(N)c3c2OCC3)CC1 [Prucalopride] | 0.9854

same assay, conditions: NCI-H292 cells, drug in cholesterol-free media with simvastatin 0.04 μM

SMILES | Cholesterol-free media + simvastatin (0.04 μM)
CC(C)(Sc1cc(C(C)(C)C)c(O)c(C(C)(C)C)c1)Sc1cc(C(C)(C)C)c(O)c(C(C)(C)C)c1 [Probucol] | 1.293
OC(CCN1CCCC1)(c1ccccc1)C1CCCCC1 (stereo not shown) [Procyclidine (hydrochloride)] | 1.237
CCCOC(=O)c1cc(O)c(O)c(O)c1 [Propyl gallate] | 1.306

same assay, conditions: NCI-H292 cells, drug in complete media

SMILES | Complete Media
CC(C)(Sc1cc(C(C)(C)C)c(O)c(C(C)(C)C)c1)Sc1cc(C(C)(C)C)c(O)c(C(C)(C)C)c1 [Probucol] | 1.087
OC(CCN1CCCC1)(c1ccccc1)C1CCCCC1 (stereo not shown) [Procyclidine (hydrochloride)] | 1.076
CCCOC(=O)c1cc(O)c(O)c(O)c1 [Propyl gallate] | 1.135

same assay, conditions: complete media minus cholesterol-free media + simvastatin (0.04 μM); >0 enhanced anti-cancer activity, about 0 neutral, <0 antagonist

SMILES | Difference
CCCN(CCC)C(=O)C(CCC(=O)O)NC(=O)c1ccccc1 (stereo not shown) [Proglumide] | −0.02
CC(C)NCC(O)COc1cccc2ccccc12 (stereo not shown) [Propranolol (hydrochloride)] | 0.00

same assay, conditions: complete media minus cholesterol-free media + simvastatin; >0 enhanced anti-cancer activity, about 0 neutral, <0 antagonist

SMILES | Difference
CNNCc1ccc(C(=O)NC(C)C)cc1 [Procarbazine (Hydrochloride)] | 0.44
CCCOc1ccc(C(=O)OCCN(CC)CC)cc1N [Proparacaine (Hydrochloride)] | 0.48
CCCCC[C@H](O)/C=C/[C@H]1[C@H](O)CC(=O)[C@@H]1C/C=C\CCCC(=O)O [Prostaglandin E2] | 0.07
CCCc1cc(C(N)=S)ccn1 [Prothionamide] | 0.06
COCCCN1CCC(NC(=O)c2cc(Cl)c(N)c3c2OCC3)CC1 [Prucalopride] | 0.11
Cc1oc(=O)oc1CN1CCN(c2cc3c(cc2F)c(=O)c(C(=O)O)c2n3C(C)S2)CC1 (stereo not shown) [Prulifloxacin] | 0.21

same assay, conditions: complete media vs cholesterol-free media + simvastatin (0.04 μM); >0 enhanced anti-cancer activity, about 0 neutral, <0 antagonist

SMILES | Difference
CC(C)(Sc1cc(C(C)(C)C)c(O)c(C(C)(C)C)c1)Sc1cc(C(C)(C)C)c(O)c(C(C)(C)C)c1 [Probucol] | −0.21
CCN(CC)CCNC(=O)c1ccc(N)cc1 [Procainamide (hydrochloride)] | −0.36
OC(CCN1CCCC1)(c1ccccc1)C1CCCCC1 (stereo not shown) [Procyclidine (hydrochloride)] | −0.16
CC(=O)[C@H]1CC[C@H]2[C@@H]3CCC4=CC(=O)CC[C@]4(C)[C@H]3CC[C@]12C [Progesterone] | −0.13
CCCOC(=O)c1cc(O)c(O)c(O)c1 [Propyl gallate] | −0.17
CC(O)Cn1cnc2c1c(=O)n(C)c(=O)n2C (stereo not shown) [Proxyphylline] | −0.26
CN1CCCN=C1/C=C/c1cccs1.O=C(O)c1cc2ccccc2c(Cc2c(O)c(C(=O)O)cc3ccccc23)c1O [Pyrantel (pamoate)] | −0.40
